Laboratory results published in US10551384B2, “MTOR kinase mutations and methods of use thereof” (RUTGERS, THE STATE UNIVERSITY OF NEW JERSEY, priority 2016, dated 2020).

Tests used:
[1] = target: T1, tor2-dg cells expressing TOR2 (Saccharomyces cerevisiae, UniProt P32600); assay: Yeast serial-dilution drug sensitivity assay, tor2-dg cells expressing TOR2; type: cell-based, S. cerevisiae; details: 10-fold serial dilutions on plates containing drug
T1 construct: expressed in transfected cells; host or cells: S. cerevisiae W303 tor2-dg, plasmid pML40-TOR2
T1 sequence (P32600 whole entry): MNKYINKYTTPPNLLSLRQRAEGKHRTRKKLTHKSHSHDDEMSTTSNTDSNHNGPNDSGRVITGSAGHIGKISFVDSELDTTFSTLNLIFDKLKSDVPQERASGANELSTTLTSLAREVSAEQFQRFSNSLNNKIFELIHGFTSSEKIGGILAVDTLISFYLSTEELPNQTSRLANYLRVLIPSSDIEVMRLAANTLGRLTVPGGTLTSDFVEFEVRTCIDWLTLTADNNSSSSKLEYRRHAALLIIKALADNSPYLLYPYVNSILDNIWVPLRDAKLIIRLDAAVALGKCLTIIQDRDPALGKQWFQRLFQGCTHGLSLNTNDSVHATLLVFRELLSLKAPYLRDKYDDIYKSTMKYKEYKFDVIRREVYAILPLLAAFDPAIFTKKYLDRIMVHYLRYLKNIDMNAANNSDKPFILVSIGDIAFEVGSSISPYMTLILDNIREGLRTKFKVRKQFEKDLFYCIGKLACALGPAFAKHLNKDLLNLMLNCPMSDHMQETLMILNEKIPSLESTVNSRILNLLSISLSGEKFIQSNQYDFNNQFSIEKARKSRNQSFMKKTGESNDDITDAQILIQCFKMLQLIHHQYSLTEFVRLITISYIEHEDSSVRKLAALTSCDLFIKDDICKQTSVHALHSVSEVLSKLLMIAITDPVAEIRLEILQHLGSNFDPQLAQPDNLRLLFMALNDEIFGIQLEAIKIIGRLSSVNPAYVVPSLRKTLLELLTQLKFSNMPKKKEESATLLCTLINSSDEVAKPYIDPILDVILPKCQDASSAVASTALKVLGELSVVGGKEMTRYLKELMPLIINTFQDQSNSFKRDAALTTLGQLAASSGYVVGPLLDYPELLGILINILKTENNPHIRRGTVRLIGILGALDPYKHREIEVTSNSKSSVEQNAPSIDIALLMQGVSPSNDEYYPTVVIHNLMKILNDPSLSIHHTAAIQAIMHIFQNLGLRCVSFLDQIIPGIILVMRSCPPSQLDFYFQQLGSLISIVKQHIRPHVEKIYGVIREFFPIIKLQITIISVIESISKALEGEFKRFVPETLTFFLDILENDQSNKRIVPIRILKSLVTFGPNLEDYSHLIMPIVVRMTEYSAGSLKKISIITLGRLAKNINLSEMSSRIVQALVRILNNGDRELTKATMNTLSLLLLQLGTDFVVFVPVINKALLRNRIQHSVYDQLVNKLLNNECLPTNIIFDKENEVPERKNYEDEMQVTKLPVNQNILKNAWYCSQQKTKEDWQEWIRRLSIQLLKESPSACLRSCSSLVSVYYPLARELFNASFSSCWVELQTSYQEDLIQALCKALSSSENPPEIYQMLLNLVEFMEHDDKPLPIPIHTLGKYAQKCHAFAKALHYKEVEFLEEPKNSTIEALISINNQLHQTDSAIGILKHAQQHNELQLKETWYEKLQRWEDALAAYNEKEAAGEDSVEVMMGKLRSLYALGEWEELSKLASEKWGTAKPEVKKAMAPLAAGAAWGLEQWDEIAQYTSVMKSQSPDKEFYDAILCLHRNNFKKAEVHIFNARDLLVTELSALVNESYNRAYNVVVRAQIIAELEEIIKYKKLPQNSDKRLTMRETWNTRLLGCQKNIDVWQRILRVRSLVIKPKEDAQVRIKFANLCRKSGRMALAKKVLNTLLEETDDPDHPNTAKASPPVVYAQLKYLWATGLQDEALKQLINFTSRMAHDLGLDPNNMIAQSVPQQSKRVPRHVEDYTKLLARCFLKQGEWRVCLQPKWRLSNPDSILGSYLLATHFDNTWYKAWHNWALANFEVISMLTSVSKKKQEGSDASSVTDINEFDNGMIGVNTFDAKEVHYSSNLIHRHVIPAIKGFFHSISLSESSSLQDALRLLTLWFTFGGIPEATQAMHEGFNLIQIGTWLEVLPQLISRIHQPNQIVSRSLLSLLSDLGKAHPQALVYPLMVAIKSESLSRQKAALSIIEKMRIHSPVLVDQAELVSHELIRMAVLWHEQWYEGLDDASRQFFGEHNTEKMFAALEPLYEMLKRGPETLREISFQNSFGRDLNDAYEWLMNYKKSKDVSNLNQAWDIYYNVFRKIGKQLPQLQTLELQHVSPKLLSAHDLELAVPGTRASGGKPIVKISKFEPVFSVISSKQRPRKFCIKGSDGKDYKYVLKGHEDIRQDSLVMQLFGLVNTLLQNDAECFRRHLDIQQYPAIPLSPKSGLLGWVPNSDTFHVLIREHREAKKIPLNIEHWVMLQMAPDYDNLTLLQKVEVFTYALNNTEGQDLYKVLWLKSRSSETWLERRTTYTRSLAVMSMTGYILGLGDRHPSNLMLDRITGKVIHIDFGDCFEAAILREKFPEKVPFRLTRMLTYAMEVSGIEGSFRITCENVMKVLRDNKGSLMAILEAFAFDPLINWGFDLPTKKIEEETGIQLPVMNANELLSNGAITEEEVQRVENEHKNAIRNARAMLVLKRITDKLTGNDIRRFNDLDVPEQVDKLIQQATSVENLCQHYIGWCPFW
Description: FIGS. 1A-E. Developing a yeast system to assay for mTOR kinase inhibition. (FIG. 1A) Wild type (WT) yeast cells were spread onto YPD plates and tested for sensitivity to structurally diverse mTOR kinase inhibitors by disc halo assay. Rapamycin was used as a positive control. (FIG. 1B) The N-terminus of TOR2 (1-2080 aa) was fused in frame with mTOR kinase domain (2140-2549 aa). The TOR2-mTOR fusion is expressed under the control of TOR2 promoter in a centromeric plasmid. (FIG. 1C) Yeast strain expressing WT TOR2 or TOR2-mTOR fusion was analyzed for expression by immunoblot with an antibody specific for mTOR kinase domain. PGK1 was used as a loading control and extracts from MCF7 breast cells were used as a positive control for mTOR. (FIG. 1D) TOR2-mTOR fusion was expressed in tort-dg and tested for its ability to complement TOR2 function by growth at permissive and restrictive temperatures.
To enhance yeast cell permeability, log phase W303 tort-dg cells were spread evenly on SD-Leu agarose plates. After drying, small sterile filter discs were placed on the surface and 5 μl of indicated mTOR inhibitors or DMSO were applied to each disc with or without adding 5 μl of amphotericin B (10 μM), miconazole (50 μM) or caspofungin (50 μM). Plates were incubated at 37° C. for 3 day. Drug resistance profiles of TOR2-mTOR mutant cells were determined by the spotting assay. […]

[2] = test system: H460 lung cancer cells carrying L2185A mutant mTOR alleles; assay: SRB growth assay of H460 cells carrying L2185A mutant mTOR; type: cell-based, human; details: various concentrations, 2 days
Protocol: (FIG. 10A) Flag-mTOR(L2185A), when transiently expressed in HEK293T cells, confers drug resistance to mTOR kinase inhibitors. HEK293T cells transiently expressing WT and L2185A mutant Flag-mTOR were treated with various concentrations of INK-128, OSI-027 for 1 hr. The effect on the level of P-S6K, S6K, P-4E-BP1, 4EB-P1, P-AKT and AKT was analyzed by immunoblot. (FIG. 10B) Sequencing verification of genome-engineered SW480 and H460 cells carrying homozygous and heterozygous L2185A mutations in mTOR locus. (FIG. 10C) Independent clones of engineered SW480 cells confer similar drug resistance. Cells were treated with various concentrations of AZD8055 and INK-128 for 2 days. Cell growth was measured by SRB assay. Clones #1, 3 carry heterozygous L2185A mutation. Clones #2, 4 carry homozygous L2185A mutation. […] Cell growth was measured by SRB assay. […] Cell growth was measured by SRB assay. […] The effect on level of P-S6K, P-4E-BP1 and P-AKT was analyzed by immunoblot. […] The growth of H460 cells was measured by SRB assay. […]
Antibodies against tubulin, S6K, phospho-S6K (Thr389), 4E-BP1, phospho-4E-BP1 (Thr37/46), Akt, phospho-Akt (Thr308), and phospho-Akt (Ser473) were purchased from Cell Signaling Technology. […] Cell growth was measured by the sulforhodamine B (SRB) assay as previously described (Vichai, V., and Kirtikara, K. (2006). Nature protocols 1, 1112-1116).

[3] = target: T2, tor2-dg cells expressing TOR2-mTOR fusion (UniProt P32600+P42345); type: cell-based, S. cerevisiae; details: 10-fold serial dilutions on plates containing drug
T2 construct: fused in frame with mTOR kinase domain (2140-2549 aa); yeast TOR2 N-terminus (1-2080 aa); expressed in transfected cells; host or cells: S. cerevisiae W303 tor2-dg, centromeric plasmid derived from pML40-TOR2
Description: The TOR2-mTOR hybrid plasmid was constructed by replacing the C-terminal region of TOR2 of pML40-TOR2 (Alarcon, et al. (1996). Genes & development 10, 279-288) (encoding for 2080-2474 aa) in frame with a DNA fragment corresponding to C-terminal domain of mTOR (encoding for 2140-2549 aa). To construct mutant TOR2-mTOR plasmids, mTOR C-terminal region was amplified by PCR and co-transformed into yeast with XmaI-digested pML40-TOR2 plasmid that excised the TOR2 C-terminal region. The resultant TOR2-mTOR fusion plasmids are constructed in reading frame by gap-repair in yeast.

[4] = test system: SW480 colorectal cancer cells carrying L2185A mutant mTOR alleles; assay: SRB growth assay of SW480 cells carrying L2185A mutant mTOR; type: cell-based, human; details: various concentrations, 2 day
Protocol: (FIG. 5A) SW480 cells carrying homozygous WT mTOR or L2185A mutant alleles were treated with various concentrations of AZD8055, INK-128, OSI-027 and PP242 for 2 day. Growth of SW480 cells was measured by SRB assay. Data represent means±SD in three independent experiments. (FIG. 5B) SW480 cells carrying homozygous WT and L2185A mutant mTOR allele were treated with a single dose of AZD8055 (100 nM), INK-128 (100 nM), OSI-027 (6,000 nM), and PP242 (2,000 nM) for different times. Cell growth was measured by SRB assay. The drug carrier DMSO was used as a control. Data represent means±SD in three independent experiments. (FIG. 5C) SW480 cells carrying homozygous WT and L2185A mutant mTOR were treated with various concentrations of INK-128, OSI-027, AZD8055 and PP242 for 1 hr. The effect on the level of P-S6K, S6K, P-4E-BP1, 4EB-P1, P-AKT and AKT was analyzed by immunoblot. […] The growth of SW480 cells was measured by SRB assay. Data represent means±SD in three independent experiments.
Cancer cell lines were maintained in DMEM or RPMI 1640, supplemented with 10% fetal bovine serum (Invitrogen) and 1% penicillin/streptomycin (Invitrogen). CRISPR/cas9 technology was used to engineer mutant mTOR allele in SW480 colorectal and H460 lung cancer cells. Briefly, The target sequence for mTOR, […] (SEQ ID NO: 3 was designed through the online tool at crispr.mit.edu, and cloned into pSPCas9(BB)-2A-GFP vector (PX458 in Addgene). Genomic mTOR mutation was engineered using a protocol as described (Ran, et al. (2013). Nature protocols 8, 2281-2308) and was confirmed by targeted sequencing.
Antibodies against tubulin, S6K, phospho-S6K (Thr389), 4E-BP1, phospho-4E-BP1 (Thr37/46), Akt, phospho-Akt (Thr308), and phospho-Akt (Ser473) were purchased from Cell Signaling Technology. […] For drug sensitivity test, cancer cells were seeded in 96-well plates at a density of 2,000 cells per well. 24 hours later, different concentrations of mTOR inhibitors were added in quadruplicate. Cell growth was measured by the sulforhodamine B (SRB) assay as previously described (Vichai, V., and Kirtikara, K. (2006). Nature protocols 1, 1112-1116).

[5] = test system: TOR2-mTOR L2185C mutant; assay: Yeast spotting assay for drug resistance, TOR2-mTOR L2185C; type: cell-based, S. cerevisiae; details: 37° C., amphotericin B present (except OSI-027)
Description: (§1) FIGS. 4A-C. […] (FIG. 4A) Scheme of a yeast-based screen for drug-resistant mutations in mTOR kinase domain. mTOR kinase domain is amplified by error-prone PCR to generate randomized mutations, which is then recombined in frame into the TOR2-mTOR plasmid by gap-repair in tort-dg cells, and is selected on SC-leucine minus plates. Replica plating is then made onto SC-leucine plates containing DMSO or mTOR kinase inhibitor for selection of drug resistant clones. (FIG. 4B) tor2-dg cells expressing WT or mutant TOR2-mTOR were serially diluted by 10-fold and assayed for sensitivity to different mTOR kinase inhibitors in the presence of amphotericin B. Vector and TOR2 were used as controls. Drug resistant assay was performed at 37° C. in the presence of amphotericin B (except OSI-027). (FIG. 4C) Systematic mutational analysis of L2185 on drug resistance. tort-dg cells expressing WT or mutant TOR2-mTOR carrying all possible mutations at L2185 were serially diluted by 10-fold and tested for sensitivity to different mTOR kinase inhibitors at 37° C.
(§2) To enhance yeast cell permeability, log phase W303 tort-dg cells were spread evenly on SD-Leu agarose plates. After drying, small sterile filter discs were placed on the surface and 5 μl of indicated mTOR inhibitors or DMSO were applied to each disc with or without adding 5 μl of amphotericin B (10 μM), miconazole (50 μM) or caspofungin (50 μM). Plates were incubated at 37° C. for 3 day. Drug resistance profiles of TOR2-mTOR mutant cells were determined by the spotting assay. For this assay, 10-fold serial dilutions of cells were spotted on SD-leu plates in the presence of indicated mTOR inhibitors with or without amphotericin B (200 nM) and incubated at 37° C. for 3 day.

[6] = test system: TOR2-mTOR L2185A mutant; assay: Yeast spotting assay for drug resistance, TOR2-mTOR L2185A; type: cell-based, S. cerevisiae; details: 37° C., amphotericin B present (except OSI-027)
Description: as §1, §2

[7] = test system: Wild type (WT) yeast cells; assay: Disc halo assay of wild type yeast sensitivity to mTOR kinase inhibitors; type: cell-based, S. cerevisiae; details: WT yeast on YPD plates; 5 μl on filter disc, BEZ235 5 μM, other mTOR inhibitors 10 μM; 30° C., 3 day
Protocol: For the halo assay, log phase W303 wild type or tor2-dg cells were spread evenly on YPD agarose plates. […] Plates were incubated at 30° C. (wild type) or 37° C. (tor2-dg) for 3 day.

Cn1c(=O)n(-c2ccc(C(C)(C)C#N)cc2)c2c3cc(-c4cnc5ccccc5c4)ccc3ncc21 [BEZ235]
drug sensitivity (growth inhibition) of tor2-dg cells expressing TOR2 [1]: poorly inhibited
drug resistance/sensitivity of cell growth, H460 L2185A vs WT [2]: remains sensitive
drug sensitivity of tor2-dg cells expressing TOR2-mTOR [3]: highly sensitive
drug resistance/sensitivity of cell growth, SW480 L2185A vs WT [4]: remains sensitive

Nc1ccc(-c2ccc3ncc4ccc(=O)n(-c5cccc(C(F)(F)F)c5)c4c3c2)cn1 [Torin2]
drug resistance/sensitivity of cell growth, H460 L2185A vs WT [2]: remains sensitive
drug resistance/sensitivity of cell growth, SW480 L2185A vs WT [4]: remains sensitive
drug resistance/sensitivity of TOR2-mTOR L2185C mutant yeast [5]: remain sensitive
drug resistance/sensitivity of TOR2-mTOR L2185A mutant yeast [6]: remain sensitive
inhibition of yeast growth (disc halo assay) [7]: inhibit yeast growth
